{"source": "ChEMBL document CHEMBL1759890", "about": "“3,5-Disubstituted-indole-7-carboxamides: the discovery of a novel series of potent, selective inhibitors of IKK-β” (Bioorg Med Chem Lett, 2011)", "key": {"[1]": {"target": "T1, Inhibitor of nuclear factor kappa-B kinase subunit beta (Homo sapiens, UniProt O14920)", "T1 sequence (O14920 whole entry)": "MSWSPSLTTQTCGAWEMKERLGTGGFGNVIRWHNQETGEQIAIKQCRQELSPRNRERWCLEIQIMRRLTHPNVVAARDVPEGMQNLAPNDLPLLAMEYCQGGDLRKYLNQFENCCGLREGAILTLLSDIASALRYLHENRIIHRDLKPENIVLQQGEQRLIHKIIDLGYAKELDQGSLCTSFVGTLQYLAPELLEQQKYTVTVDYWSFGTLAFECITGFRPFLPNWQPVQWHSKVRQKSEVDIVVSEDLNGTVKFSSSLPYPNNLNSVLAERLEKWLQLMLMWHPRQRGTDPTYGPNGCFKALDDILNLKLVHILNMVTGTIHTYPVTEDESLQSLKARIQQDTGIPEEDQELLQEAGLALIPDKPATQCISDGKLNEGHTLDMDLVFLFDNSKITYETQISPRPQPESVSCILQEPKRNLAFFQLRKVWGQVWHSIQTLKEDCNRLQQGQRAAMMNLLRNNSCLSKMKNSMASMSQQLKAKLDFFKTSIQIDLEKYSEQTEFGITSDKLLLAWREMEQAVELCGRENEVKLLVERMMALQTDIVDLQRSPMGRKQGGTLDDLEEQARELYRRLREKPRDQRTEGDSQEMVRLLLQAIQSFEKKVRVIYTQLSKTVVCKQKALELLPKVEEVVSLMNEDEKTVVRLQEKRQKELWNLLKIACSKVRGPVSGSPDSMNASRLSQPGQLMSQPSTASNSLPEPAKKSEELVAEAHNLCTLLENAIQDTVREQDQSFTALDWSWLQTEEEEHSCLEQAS", "assay": "Inhibition of IKK-beta"}, "Aurora kinase A": {"target": "T2, Aurora kinase A (Homo sapiens, UniProt O14965)", "T2 sequence (O14965 whole entry)": "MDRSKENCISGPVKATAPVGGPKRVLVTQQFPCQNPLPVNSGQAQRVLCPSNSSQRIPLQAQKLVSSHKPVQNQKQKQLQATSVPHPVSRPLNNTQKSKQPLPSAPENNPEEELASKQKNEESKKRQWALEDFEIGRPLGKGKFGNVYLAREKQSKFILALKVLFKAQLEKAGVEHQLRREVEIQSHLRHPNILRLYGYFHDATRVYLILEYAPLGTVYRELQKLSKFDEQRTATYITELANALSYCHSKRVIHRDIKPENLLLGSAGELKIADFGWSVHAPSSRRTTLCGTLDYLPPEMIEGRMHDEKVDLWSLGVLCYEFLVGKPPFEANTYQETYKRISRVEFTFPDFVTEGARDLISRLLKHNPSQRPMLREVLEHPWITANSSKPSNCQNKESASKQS", "assay": "Inhibition of Aurora A kinase"}, "[2]": {"target": "T3, Receptor-type tyrosine-protein kinase FLT3 (Homo sapiens, UniProt P36888)", "T3 sequence (P36888 whole entry)": "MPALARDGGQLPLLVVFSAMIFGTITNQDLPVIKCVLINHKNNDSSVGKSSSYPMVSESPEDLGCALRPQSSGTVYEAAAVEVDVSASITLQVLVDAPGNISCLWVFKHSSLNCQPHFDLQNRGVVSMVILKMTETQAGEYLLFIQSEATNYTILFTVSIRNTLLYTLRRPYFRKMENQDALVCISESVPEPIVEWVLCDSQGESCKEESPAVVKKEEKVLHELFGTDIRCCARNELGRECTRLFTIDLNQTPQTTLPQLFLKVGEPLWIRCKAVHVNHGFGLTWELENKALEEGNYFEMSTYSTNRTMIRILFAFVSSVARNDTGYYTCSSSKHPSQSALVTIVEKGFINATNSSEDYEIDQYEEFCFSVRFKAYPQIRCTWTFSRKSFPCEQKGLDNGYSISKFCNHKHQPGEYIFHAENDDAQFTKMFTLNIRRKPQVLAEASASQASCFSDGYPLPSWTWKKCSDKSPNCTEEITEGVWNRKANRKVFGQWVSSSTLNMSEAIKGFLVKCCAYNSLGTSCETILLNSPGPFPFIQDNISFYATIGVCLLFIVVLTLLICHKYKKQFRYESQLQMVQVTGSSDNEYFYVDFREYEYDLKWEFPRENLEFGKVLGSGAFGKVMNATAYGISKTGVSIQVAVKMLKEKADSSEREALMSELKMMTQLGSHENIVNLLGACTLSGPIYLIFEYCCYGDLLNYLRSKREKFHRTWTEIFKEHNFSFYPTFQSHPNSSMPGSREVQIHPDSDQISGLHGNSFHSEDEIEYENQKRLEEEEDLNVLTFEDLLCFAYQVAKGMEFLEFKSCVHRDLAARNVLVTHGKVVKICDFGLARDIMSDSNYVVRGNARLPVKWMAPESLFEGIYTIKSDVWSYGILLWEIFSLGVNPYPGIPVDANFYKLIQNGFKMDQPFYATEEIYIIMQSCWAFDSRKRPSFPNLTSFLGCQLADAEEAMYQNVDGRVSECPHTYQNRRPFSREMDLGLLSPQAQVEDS", "assay": "Binding affinity to FLT3 assessed as dissociation constant"}, "[3]": {"target": "T4, Inhibitor of nuclear factor kappa-B kinase subunit epsilon (Homo sapiens, UniProt Q14164)", "T4 sequence (Q14164 whole entry)": "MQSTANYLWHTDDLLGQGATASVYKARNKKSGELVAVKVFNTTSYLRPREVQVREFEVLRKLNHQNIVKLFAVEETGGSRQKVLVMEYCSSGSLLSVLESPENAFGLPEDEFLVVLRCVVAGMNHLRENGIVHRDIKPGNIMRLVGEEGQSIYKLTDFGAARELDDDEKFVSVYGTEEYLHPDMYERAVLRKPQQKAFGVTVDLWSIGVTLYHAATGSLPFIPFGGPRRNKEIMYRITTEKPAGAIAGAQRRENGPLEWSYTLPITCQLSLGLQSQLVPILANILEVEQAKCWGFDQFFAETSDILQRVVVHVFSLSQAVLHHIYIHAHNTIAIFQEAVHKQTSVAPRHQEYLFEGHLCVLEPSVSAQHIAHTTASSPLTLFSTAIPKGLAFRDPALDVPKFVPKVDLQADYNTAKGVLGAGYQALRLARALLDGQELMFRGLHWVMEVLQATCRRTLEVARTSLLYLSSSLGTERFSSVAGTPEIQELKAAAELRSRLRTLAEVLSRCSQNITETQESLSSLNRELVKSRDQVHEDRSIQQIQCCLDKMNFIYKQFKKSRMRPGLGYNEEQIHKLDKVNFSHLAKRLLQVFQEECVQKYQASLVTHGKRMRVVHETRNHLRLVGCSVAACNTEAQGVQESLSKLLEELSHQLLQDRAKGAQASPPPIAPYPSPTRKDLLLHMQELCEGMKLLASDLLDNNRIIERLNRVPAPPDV", "assay": "Inhibition of IKK-epsilon"}}, "data": [{"compound": "CCCS(=O)(=O)N1CCC(c2c[nH]c3c(C(N)=O)cc(-c4ccccc4)cc23)CC1", "values": [{"measurement": "IC50", "setting": "[1]", "result": 12.6, "unit": "nM"}, {"measurement": "IC50", "setting": "Aurora kinase A", "result": 1260, "unit": "nM"}, {"measurement": "Kd", "setting": "[2]", "result": 1260, "unit": "nM"}, {"measurement": "IC50", "setting": "[3]", "result": "> 3160", "unit": "nM"}]}]}
